This is an account of results in patent US11739098B2 (BRISTOL-MYERS SQUIBB COMPANY, priority 2017, dated 2023).

Common to all, as to format: cell-based
One test addresses T1, human TLR7 (Homo sapiens, UniProt Q9NYK1).
T1 construct: host or cells: HEK-Blue cells (HEK293-derived reporter line)
T1 sequence (Q9NYK1 27-1049): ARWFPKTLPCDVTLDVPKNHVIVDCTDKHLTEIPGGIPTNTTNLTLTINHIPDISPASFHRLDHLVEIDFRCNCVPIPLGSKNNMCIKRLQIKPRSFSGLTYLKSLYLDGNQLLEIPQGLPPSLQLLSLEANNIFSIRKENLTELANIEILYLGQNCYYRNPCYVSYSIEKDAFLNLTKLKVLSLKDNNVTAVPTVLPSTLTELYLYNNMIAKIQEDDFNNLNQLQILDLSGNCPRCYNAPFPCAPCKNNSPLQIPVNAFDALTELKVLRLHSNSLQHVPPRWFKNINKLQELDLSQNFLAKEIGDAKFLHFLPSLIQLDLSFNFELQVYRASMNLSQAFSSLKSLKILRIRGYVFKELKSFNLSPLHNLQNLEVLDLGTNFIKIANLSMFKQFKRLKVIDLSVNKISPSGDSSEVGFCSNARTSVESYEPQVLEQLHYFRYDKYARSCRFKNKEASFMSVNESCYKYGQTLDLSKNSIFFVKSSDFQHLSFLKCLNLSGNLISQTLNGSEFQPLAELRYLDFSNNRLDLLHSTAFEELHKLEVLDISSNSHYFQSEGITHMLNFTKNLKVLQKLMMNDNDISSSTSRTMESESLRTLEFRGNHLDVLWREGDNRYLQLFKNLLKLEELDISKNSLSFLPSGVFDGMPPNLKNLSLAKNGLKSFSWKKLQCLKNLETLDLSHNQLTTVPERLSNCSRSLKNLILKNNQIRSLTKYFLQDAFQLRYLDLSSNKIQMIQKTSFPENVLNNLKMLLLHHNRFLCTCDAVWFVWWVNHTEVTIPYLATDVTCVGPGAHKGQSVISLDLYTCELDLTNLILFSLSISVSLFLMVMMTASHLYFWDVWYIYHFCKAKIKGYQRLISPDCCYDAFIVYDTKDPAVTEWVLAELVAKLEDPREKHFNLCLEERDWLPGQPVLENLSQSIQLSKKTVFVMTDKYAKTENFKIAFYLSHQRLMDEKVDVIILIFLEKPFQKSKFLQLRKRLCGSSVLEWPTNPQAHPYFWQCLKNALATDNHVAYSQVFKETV
Kind of test: TLR7 inhibition reporter assay (HEK-Blue cells, SEAP reporter, gardiquimod stimulation). As to conditions: HEK-Blue cells overexpressing human TLR7, SEAP reporter, gardiquimod 7.5 μM. A digest of the protocol:
(§1)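 Read-out is SEAP activity in HEK-Blue detection medium after 22 h at 37 °C, converted to percent inhibition against agonist-plus-DMSO and reference-inhibitor controls. Cells saw compound (0.05 nM–50 μM, 30 min, room temperature) before gardiquimod 7.5 μM, R848 15.9 μM or ODN2006 5 nM for TLR7, TLR8 and TLR9, respectively.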
On the technique in general: In a reporter assay the amount or activity of a reporter protein is the signal.

A further test addresses T2, human TLR9 (Homo sapiens, UniProt Q9NR96).
T2 construct: host or cells: HEK-Blue cells (HEK293-derived reporter line)
T2 sequence (Q9NR96 26-1032): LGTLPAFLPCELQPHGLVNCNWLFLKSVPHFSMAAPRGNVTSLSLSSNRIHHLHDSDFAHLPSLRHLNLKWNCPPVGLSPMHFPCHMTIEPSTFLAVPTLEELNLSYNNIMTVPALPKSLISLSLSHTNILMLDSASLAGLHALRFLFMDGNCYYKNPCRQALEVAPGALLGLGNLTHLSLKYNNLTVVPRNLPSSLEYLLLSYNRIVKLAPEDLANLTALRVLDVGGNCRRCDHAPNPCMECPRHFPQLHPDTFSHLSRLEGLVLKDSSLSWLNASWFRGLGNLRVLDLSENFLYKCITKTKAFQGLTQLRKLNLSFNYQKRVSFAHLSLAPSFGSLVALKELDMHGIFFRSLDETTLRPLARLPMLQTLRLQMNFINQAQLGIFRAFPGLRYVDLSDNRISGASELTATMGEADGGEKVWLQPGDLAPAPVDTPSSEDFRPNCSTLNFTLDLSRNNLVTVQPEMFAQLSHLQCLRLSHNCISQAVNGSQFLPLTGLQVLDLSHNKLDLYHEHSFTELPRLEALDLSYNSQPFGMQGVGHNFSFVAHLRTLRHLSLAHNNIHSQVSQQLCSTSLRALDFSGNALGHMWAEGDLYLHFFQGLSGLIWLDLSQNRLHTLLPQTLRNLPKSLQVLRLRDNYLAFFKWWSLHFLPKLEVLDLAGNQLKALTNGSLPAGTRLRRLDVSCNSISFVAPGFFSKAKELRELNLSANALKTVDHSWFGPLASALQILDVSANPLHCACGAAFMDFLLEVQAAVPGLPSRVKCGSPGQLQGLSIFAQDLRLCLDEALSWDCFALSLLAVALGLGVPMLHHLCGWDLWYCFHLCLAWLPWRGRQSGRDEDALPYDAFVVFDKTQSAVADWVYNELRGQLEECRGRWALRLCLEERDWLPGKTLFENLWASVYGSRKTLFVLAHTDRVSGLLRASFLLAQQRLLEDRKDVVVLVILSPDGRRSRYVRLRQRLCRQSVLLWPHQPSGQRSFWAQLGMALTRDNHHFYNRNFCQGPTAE
Briefly: TLR9 inhibition reporter assay (HEK-Blue cells, SEAP reporter, ODN2006 stimulation). As to conditions: HEK-Blue cells overexpressing human TLR9, SEAP reporter, ODN2006 5 nM. Summed up:
as §1

The target in a further test is T3, human TLR8 (Homo sapiens, UniProt Q9NR97).
T3 construct: host or cells: HEK-Blue cells (HEK293-derived reporter line)
T3 sequence (Q9NR97 27-1041): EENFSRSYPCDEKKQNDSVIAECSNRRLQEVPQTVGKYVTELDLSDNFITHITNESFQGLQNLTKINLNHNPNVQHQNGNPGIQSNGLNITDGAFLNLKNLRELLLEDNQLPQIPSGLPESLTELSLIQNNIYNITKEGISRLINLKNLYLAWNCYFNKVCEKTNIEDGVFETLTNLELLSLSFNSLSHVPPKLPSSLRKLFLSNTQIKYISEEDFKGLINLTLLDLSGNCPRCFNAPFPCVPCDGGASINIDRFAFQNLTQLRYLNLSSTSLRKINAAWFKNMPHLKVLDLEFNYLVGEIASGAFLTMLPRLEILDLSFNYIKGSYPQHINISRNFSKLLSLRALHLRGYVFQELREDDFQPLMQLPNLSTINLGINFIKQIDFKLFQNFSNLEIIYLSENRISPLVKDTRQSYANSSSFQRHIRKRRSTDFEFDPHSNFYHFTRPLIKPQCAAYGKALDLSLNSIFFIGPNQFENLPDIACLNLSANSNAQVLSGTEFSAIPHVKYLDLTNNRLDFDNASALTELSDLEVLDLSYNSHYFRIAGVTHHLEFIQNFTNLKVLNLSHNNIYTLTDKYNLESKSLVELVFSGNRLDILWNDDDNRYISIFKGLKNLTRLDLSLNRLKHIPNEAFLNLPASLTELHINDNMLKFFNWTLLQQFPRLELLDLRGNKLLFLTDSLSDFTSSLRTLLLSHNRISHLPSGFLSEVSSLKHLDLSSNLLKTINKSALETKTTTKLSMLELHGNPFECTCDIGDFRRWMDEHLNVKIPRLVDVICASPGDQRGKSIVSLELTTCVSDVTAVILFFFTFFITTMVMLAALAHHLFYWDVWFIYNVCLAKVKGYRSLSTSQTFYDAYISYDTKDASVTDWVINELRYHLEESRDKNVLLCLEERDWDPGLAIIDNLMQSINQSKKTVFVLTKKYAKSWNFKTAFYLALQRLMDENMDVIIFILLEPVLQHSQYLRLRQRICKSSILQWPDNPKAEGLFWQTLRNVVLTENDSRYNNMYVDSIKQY
Briefly: TLR8 inhibition reporter assay (HEK-Blue cells, SEAP reporter, R848 stimulation). As to conditions: HEK-Blue cells overexpressing human TLR8, SEAP reporter, R848 15.9 μM. A digest of the protocol:
as §1

What is called IC50 is the point on the concentration scale where inhibition reaches its midpoint. High values mean a need for much substance, low ones inhibition by little substance. Turning to `Cc1ncc(CN2CCC(c3ccc4[nH]c(-c5ccnc6[nH]ncc56)c(C(C)C)c4c3)CC2)[nH]1` [Example 869, 4-(3-isopropyl-5-(1-((2-methyl-1H-imidazol-5-yl)methyl)piperidin-4-yl)-1H-indol-2-yl)-1H-pyrazolo[3,4-b]pyridine], the results for the IC50 against human TLR7, against human TLR9 and at human TLR8 were below 100 nM, 100 to 1000 nM and below 100 nM, respectively.

For the molecule `CC(C)c1c(-c2ccnc3[nH]ncc23)[nH]c2ccc(C3CCN(Cc4c[nH]cn4)CC3)cc12` [Example 870, 4-(5-(1-((1H-imidazol-4-yl)methyl)piperidin-4-yl)-3-isopropyl-1H-indol-2-yl)-1H-pyrazolo[3,4-b]pyridine], the half-maximal inhibitory concentration (IC50) on human TLR7 is below 100 nM; at human TLR9 it was 100 to 1000 nM; at human TLR8, below 100 nM.

Take `CCc1c(-c2ccnc3[nH]ccc23)[nH]c2ccc(C3CCN(Cc4cccn4C)CC3)cc12` [Example 871, 4-(3-ethyl-5-(1-((1-methyl-1H-pyrrol-2-yl)methyl)piperidin-4-yl)-1H-indol-2-yl)-1H-pyrrolo[2,3-b]pyridine]: the half-inhibitory concentration (IC50) against human TLR7 is 100 to 1000 nM; at human TLR9, 1000 to 50000 nM; against human TLR8, below 100 nM.

For `Cc1ncc(CN2CCC(c3ccc4[nH]c(-c5ccnc6[nH]nc(C)c56)c(C(C)C)c4c3)CC2)[nH]1` [Example 872, 4-(3-isopropyl-5-(1-((2-methyl-1H-imidazol-5-yl)methyl)piperidin-4-yl)-1H-indol-2-yl)-3-methyl-1H-pyrazolo[3,4-b]pyridine], the results for the half-inhibitory concentration (IC50) on human TLR7, on human TLR9 and against human TLR8 were 1000 to 50000 nM, 100 to 1000 nM and below 100 nM, respectively.

`CCc1c(-c2ccnc3[nH]nc(C)c23)[nH]c2ccc(C3CCN(Cc4cnc[nH]4)CC3)cc12` [Example 873, 4-(5-(1-((1H-imidazol-5-yl)methyl)piperidin-4-yl)-3-ethyl-1H-indol-2-yl)-3-methyl-1H-pyrazolo[3,4-b]pyridine]: the IC50 is below 100 nM against human TLR7, 100 to 1000 nM at human TLR9 and below 100 nM against human TLR8.

With `Cc1nc[nH]c1CN1CCC(c2ccc3[nH]c(-c4ccnc5[nH]nc(C)c45)c(C(C)C)c3c2)CC1` [Example 874, 4-(3-isopropyl-5-(1-((4-methyl-1H-imidazol-5-yl)methyl)piperidin-4-yl)-1H-indol-2-yl)-3-methyl-1H-pyrazolo[3,4-b]pyridine], the IC50 was below 100 nM at human TLR7, 100 to 1000 nM at human TLR9 and below 100 nM at human TLR8.

Regarding `Cc1n[nH]c2nccc(-c3[nH]c4ccc(C5CCN(Cc6cnc[nH]6)CC5)cc4c3C(C)C)c12` [Example 875, 4-(5-(1-((1H-imidazol-5-yl)methyl)piperidin-4-yl)-3-isopropyl-1H-indol-2-yl)-3-methyl-1H-pyrazolo[3,4-b]pyridine], the IC50 at human TLR7 is 100 to 1000 nM; against human TLR9 it was 100 to 1000 nM; on human TLR8, below 100 nM.

With `Cc1ncc(CN2CCC(c3ccc4[nH]c(-c5cn(C)c6ncccc56)c(C(C)C)c4c3)CC2)cn1` [Example 876, 3-(3-isopropyl-5-(1-((2-methylpyrimidin-5-yl)methyl)piperidin-4-yl)-1H-indol-2-yl)-1-methyl-1H-pyrrolo[2,3-b]pyridine], the IC50 against human TLR7 is below 100 nM; against human TLR9, 1000 to 50000 nM; at human TLR8, below 100 nM.

Consider `CC(C)c1c(-c2cn(C)c3ncccc23)[nH]c2ccc(C3CCN(Cc4cnn[nH]4)CC3)cc12` [Example 877, 3-(5-(1-((1H-1,2,3-triazol-5-yl)methyl)piperidin-4-yl)-3-isopropyl-1H-indol-2-yl)-1-methyl-1H-pyrrolo[2,3-b]pyridine], for which the results for the concentration for half-maximal inhibition (IC50) at human TLR7, against human TLR9 and against human TLR8 were below 100 nM, 1000 to 50000 nM and below 100 nM, respectively.

Consider `CC(C)c1c(-c2cn(C)c3ncccc23)[nH]c2ccc(C3CCN(Cc4ncn(C)n4)CC3)cc12` [Example 878, 3-(3-isopropyl-5-(1-((1-methyl-1H-1,2,4-triazol-3-yl)methyl)piperidin-4-yl)-1H-indol-2-yl)-1-methyl-1H-pyrrolo[2,3-b]pyridine], for which the results for the concentration for half-maximal inhibition (IC50) at human TLR7, against human TLR9 and against human TLR8 were below 100 nM, 1000 to 50000 nM and below 100 nM, respectively.

Consider `CC(C)c1c(-c2ccc3cnnn3c2)[nH]c2ccc(C3CCN(Cc4ncn(C)n4)CC3)cc12` [Example 879, 6-(3-isopropyl-5-(1-((1-methyl-1H-1,2,4-triazol-3-yl)methyl)piperidin-4-yl)-1H-indol-2-yl)-[1,2,3]triazolo[1,5-a]pyridine], for which the IC50 at human TLR7 lay within 100 to 1000 nM; at human TLR9, 1000 to 50000 nM; at human TLR8 it was 100 to 1000 nM.

On to `CC(C)c1c(-c2ccn3cnnc3c2)[nH]c2ccc(C3CCN(Cc4ncn(C)n4)CC3)cc12` [Example 880, 7-(3-isopropyl-5-(1-((1-methyl-1H-1,2,4-triazol-3-yl)methyl)piperidin-4-yl)-1H-indol-2-yl)-[1,2,4]triazolo[4,3-a]pyridine], for which the half-inhibitory concentration (IC50) was in the range of 100 to 1000 nM against human TLR7, 1000 to 50000 nM against human TLR9 and 100 to 1000 nM on human TLR8.
